One series concerns the target human integrin αvβ5 (Homo sapiens, UniProt P06756+P18084). The experiment in a line: Evaluation of integrin binding property (surface plasmon resonance, Biacore 3000, immobilized cyclic peptide). In short, it runs like this: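 SPR with cyclic peptide amine-coupled via EDC/NHS to a CM5 chip, blank channel as reference. Integrin αvβ5 at 30, 100, 300 and 1,000 nM injected 10 min at 25 °C in HEPES buffer pH 7.4 with 5 mM MgCl2, 30 min buffer flow, EDTA regeneration; Kd from reference-subtracted signals, graded by category.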

Series [1] in a line: Evaluation of molecule stability (alkali treatment, residual rate by LC/MS). Type of series: physicochemical. To be noted: for Stability (molecule stability, residual rate of the cyclic peptide rank): alkali treatment, residual rate by LC/MS; for Performance evaluation: Stability (residual rate of cyclic peptide after alkali treatment): 500 μM peptide aqueous solution plus equivalent of 1 M sodium hydroxide, 15° C., 3 hours, LC/MS peak area. In a few lines: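 500 μM aqueous cyclic peptide mixed with an equal volume of 1 M NaOH and held 3 h at 15 °C. Residual rate is total LC/MS peak area after treatment relative to untreated (100%), using a C18 column, pH 3 ammonium formate/acetonitrile gradient, 45 °C, ESI±.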

Setting [2] is: surface plasmon resonance, immobilized cyclic peptide, human integrin αvβ5, read-out: Binding activity (integrin binding property, dissociation constant rank).
Where [3] appears, read: SPR, 25° C., HEPES buffer with 5 mM magnesium chloride, integrin 30-1,000 nM, read-out: Performance evaluation: Binding activity (dissociation constant between the cyclic peptide and human integrin αvβ5).

This note sets out measurements from patent publication US12673975B2, “Cyclic peptide, cell scaffold material, cell separating material, and medium” (FUJIFILM Corporation, priority 2019, dated 2026).

SMILES strings stand for the structures. Where two headings read alike, the source gives them in different places. Starred links: 1 amine or outer side, 2 acyl side, 3 side chain; linkers in the order of their positions; H or OH if unused. Positions of bridges follow the written chain, without caps; N, C: chain ends. Non-standard residues stand in square brackets, D forms with d. Residues, ends and D or L forms follow the SMILES beside them. Pen = CC(C)(S)[C@H](N)C(=O)O; hCys = N[C@@H](CCS)C(=O)O; Orn = NCCC[C@H](N)C(=O)O; Dab = NCC[C@H](N)C(=O)O; Dap = NC[C@H](N)C(=O)O; X1 = O=C(C[*:2])[*:1]; X2 = O=C(C[*:1])[*:2]; βAla = NCCC(=O)O

human integrin αvβ5, sequence (P06756 31-1048): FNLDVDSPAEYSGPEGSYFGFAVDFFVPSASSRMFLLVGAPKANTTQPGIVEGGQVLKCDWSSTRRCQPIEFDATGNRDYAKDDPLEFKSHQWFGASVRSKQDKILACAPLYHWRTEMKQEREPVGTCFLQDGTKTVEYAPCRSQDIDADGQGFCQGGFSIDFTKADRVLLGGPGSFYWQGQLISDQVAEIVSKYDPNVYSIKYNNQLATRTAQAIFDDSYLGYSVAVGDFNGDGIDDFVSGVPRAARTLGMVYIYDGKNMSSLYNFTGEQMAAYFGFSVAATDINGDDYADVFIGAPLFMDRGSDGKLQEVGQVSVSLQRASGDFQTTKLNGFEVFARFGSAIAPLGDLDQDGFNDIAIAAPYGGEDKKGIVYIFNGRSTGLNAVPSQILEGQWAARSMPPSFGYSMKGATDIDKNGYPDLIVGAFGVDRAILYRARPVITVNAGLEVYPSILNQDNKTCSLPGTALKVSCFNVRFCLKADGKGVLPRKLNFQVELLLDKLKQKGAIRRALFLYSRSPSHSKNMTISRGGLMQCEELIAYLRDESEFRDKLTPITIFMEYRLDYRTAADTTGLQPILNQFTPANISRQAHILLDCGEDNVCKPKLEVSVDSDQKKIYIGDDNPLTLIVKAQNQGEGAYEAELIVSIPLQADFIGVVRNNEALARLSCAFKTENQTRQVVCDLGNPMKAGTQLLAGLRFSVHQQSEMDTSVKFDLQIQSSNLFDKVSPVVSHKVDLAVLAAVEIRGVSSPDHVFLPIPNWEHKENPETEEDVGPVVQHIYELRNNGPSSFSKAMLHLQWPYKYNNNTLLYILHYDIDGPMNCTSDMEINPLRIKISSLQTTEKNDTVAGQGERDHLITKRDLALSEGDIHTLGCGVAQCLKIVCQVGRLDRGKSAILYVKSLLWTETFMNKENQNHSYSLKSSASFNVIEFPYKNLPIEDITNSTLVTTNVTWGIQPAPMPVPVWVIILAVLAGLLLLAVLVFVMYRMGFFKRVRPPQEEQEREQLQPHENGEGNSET
human integrin αvβ5, sequence (P18084 24-799): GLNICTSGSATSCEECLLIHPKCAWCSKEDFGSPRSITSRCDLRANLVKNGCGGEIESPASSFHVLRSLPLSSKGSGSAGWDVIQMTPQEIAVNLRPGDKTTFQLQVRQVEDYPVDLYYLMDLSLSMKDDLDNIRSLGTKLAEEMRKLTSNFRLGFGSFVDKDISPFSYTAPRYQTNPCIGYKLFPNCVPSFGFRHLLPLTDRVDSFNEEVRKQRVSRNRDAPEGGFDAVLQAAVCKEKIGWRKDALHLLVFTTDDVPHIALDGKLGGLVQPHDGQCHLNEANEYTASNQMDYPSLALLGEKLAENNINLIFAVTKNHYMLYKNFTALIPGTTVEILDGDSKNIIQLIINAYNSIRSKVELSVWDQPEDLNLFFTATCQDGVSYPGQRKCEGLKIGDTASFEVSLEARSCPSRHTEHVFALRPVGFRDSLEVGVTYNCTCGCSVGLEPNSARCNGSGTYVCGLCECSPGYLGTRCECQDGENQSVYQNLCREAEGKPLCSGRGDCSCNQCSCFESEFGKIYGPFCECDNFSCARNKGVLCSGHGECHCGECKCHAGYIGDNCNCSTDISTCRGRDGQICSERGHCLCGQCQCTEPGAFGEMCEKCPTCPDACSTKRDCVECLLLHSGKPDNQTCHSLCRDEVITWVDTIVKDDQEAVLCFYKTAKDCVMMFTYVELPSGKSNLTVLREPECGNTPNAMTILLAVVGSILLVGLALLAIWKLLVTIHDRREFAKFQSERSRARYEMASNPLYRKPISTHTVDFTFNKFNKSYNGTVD

Turning to `CC[C@H](C)[C@@H]1NC(=O)[C@@H](NC(=O)CNC(=O)[C@H](CCCCN)NC(=O)[C@H](CCCCN)NC(=O)[C@@H](N)CCCCN)CNC(=O)CSCC[C@@H](C(=O)N[C@@H](C)C(=O)O)NC(=O)[C@H](CCCNC(=N)N)NC(=O)[C@H](Cc2ccccc2)NC(=O)[C@H]([C@@H](C)O)NC(=O)[C@H](CC(=O)O)NC(=O)CNC(=O)[C@H](CCCNC(=N)N)NC(=O)[C@@H]2CCCN2C1=O` [Cyclic peptide 117, KKKG(Dap(acetyl))IPRGDTFR-(Hcy)-A] (H-KKKG[Dap]IPRGDTFR[hCys]A-OH; linker 5-14 via X1), the Kd at human integrin αvβ5 (setting [2]) is less than 50 nM. Besides, in series [1], the “Stability (molecule stability, residual rate of the cyclic peptide rank)” value was “B (The residual rate of the cyclic peptide is 50% or more and less than 70%.)”.
`CC(C)[C@@H]1NC(=O)[C@@H](NC(=O)[C@H](CCCCN)NC(=O)[C@H](CCCCN)NC(=O)[C@@H](N)CCCCN)CCSCC(=O)NCC[C@@H](C(=O)N[C@@H](C)C(=O)O)NC(=O)[C@H](CCCNC(=N)N)NC(=O)[C@H](Cc2ccccc2)NC(=O)[C@H](CC(N)=O)NC(=O)[C@H](CC(=O)O)NC(=O)CNC(=O)[C@H](CCCNC(=N)N)NC(=O)[C@@H]2CCCN2C1=O` [Cyclic peptide 21, KKK-(Hcy)-VPRGDNFR(Dab(acetyl))A] (H-KKK[hCys]VPRGDNFR[Dab]A-OH; linker 4-13 via X2): at human integrin αvβ5 (setting [3]), the Kd was less than 50 nM. Moreover, the “Performance evaluation: Stability (residual rate of cyclic peptide after alkali treatment)” value in series [1] is listed as “A (The residual rate of the cyclic peptide is 70% or more.)”.
For `N=C(N)NCCC[C@@H]1NC(=O)[C@H](Cc2ccc(O)cc2)NC(=O)[C@H](CC(N)=O)NC(=O)[C@H](CC(=O)O)NC(=O)CNC(=O)[C@H](CCCNC(=N)N)NC(=O)[C@@H]2CCCN2C(=O)[C@H](CCC(=O)O)NC(=O)[C@@H](NC(=O)CCNC(=O)[C@H](CCCCN)NC(=O)[C@H](CCCCN)NC(=O)[C@@H](N)CCCCN)CCSCC(=O)NCC[C@@H](C(N)=O)NC1=O` [Cyclic peptide 51, KKKβA-(Hcy)-EPRGDNYR(Dab(acetyl))] (H-KKK[βAla][hCys]EPRGDNYR[Dab]-NH2; linker 5-14 via X2) the same measures were 100 to 200 nM and “A (The residual rate of the cyclic peptide is 70% or more.)”.
For `N=C(N)NCCC[C@@H]1NC(=O)[C@H](Cc2ccc(O)cc2)NC(=O)[C@H](CC(N)=O)NC(=O)[C@H](CC(=O)O)NC(=O)CNC(=O)[C@H](CCCNC(=N)N)NC(=O)[C@@H]2CCCN2C(=O)[C@H](CCC(=O)O)NC(=O)[C@@H](NC(=O)[C@H](CCCCN)NC(=O)[C@H](CCCCN)NC(=O)[C@@H](N)CCCCN)CNC(=O)CSCC[C@@H](C(N)=O)NC1=O` [Cyclic peptide 52, KKK(Dap(acetyl))EPRGDNYR-(Hcy)] (H-KKK[Dap]EPRGDNYR[hCys]-NH2; linker 4-13 via X1), the Kd on human integrin αvβ5 (setting [3]) is 50 to 100 nM. The “Performance evaluation: Stability (residual rate of cyclic peptide after alkali treatment)” value in series [1] is “B (The residual rate of the cyclic peptide is 50% or more and less than 70%.)”.
Regarding `CC[C@H](C)[C@@H]1NC(=O)[C@@H](NC(=O)[C@H](C)NC(=O)[C@H](CCCCN)NC(=O)[C@H](CCCCN)NC(=O)[C@@H](N)CCCCN)CCSCC(=O)NCC[C@@H](C(=O)N[C@@H](C)C(=O)O)NC(=O)[C@H](CCCNC(=N)N)NC(=O)[C@H](Cc2ccccc2)NC(=O)[C@H]([C@@H](C)O)NC(=O)[C@H](CC(=O)O)NC(=O)CNC(=O)[C@H](CCCNC(=N)N)NC(=O)[C@@H]2CCCN2C1=O` [Cyclic peptide 56, KKKA-(Hcy)-IPRGDTFR(Dab(acetyl))A] (H-KKKA[hCys]IPRGDTFR[Dab]A-OH; linker 5-14 via X2), at human integrin αvβ5 (setting [3]), the Kd was less than 50 nM. In addition, the “Performance evaluation: Stability (residual rate of cyclic peptide after alkali treatment)” value in series [1] is given as “A (The residual rate of the cyclic peptide is 70% or more.)”.
Regarding `CC[C@H](C)[C@@H]1NC(=O)[C@@H](NC(=O)CNC(=O)[C@H](CCCCN)NC(=O)[C@H](CCCCN)NC(=O)[C@@H](N)CCCCN)CCCNC(=O)CSC[C@@H](C(=O)N[C@@H](C)C(=O)O)NC(=O)[C@H](CCCNC(=N)N)NC(=O)[C@H](Cc2ccccc2)NC(=O)[C@H]([C@@H](C)O)NC(=O)[C@H](CC(=O)O)NC(=O)CNC(=O)[C@H](CCCNC(=N)N)NC(=O)[C@@H]2CCCN2C1=O` [Cyclic peptide 139, KKKG(Orn(acetyl))IPRGDTFR(C)A] (H-KKKG[Orn]IPRGDTFRCA-OH; linker 5-14 via X1), the Kd on human integrin αvβ5 (setting [2]) was less than 50 nM. The “Stability (molecule stability, residual rate of the cyclic peptide rank)” value in series [1] is “C (The residual rate of the cyclic peptide is 30% or more and less than 50%.)”.
`CC[C@H](C)[C@@H]1NC(=O)[C@@H](NC(=O)CNC(=O)[C@H](CCCCN)NC(=O)[C@H](CCCCN)NC(=O)[C@@H](N)CCCCN)C(C)(C)SCC(=O)NCCCC[C@@H](C(=O)N[C@@H](C)C(=O)O)NC(=O)[C@H](CCCNC(=N)N)NC(=O)[C@H](Cc2ccccc2)NC(=O)[C@H]([C@@H](C)O)NC(=O)[C@H](CC(=O)O)NC(=O)CNC(=O)[C@H](CCCNC(=N)N)NC(=O)[C@@H]2CCCN2C1=O` [Cyclic peptide 131, KKKG-(Pen)-IPRGDTFR(Lys(acetyl))A] (H-KKKG[Pen]IPRGDTFRKA-OH; linker 5-14 via X2): the Kd on human integrin αvβ5 (setting [2]) lay within 50 to 100 nM. The “Stability (molecule stability, residual rate of the cyclic peptide rank)” value in series [1] is given as “A (The residual rate of the cyclic peptide is 70% or more.)”.
As for `CC[C@H](C)[C@@H]1NC(=O)[C@@H](NC(=O)[C@H](C)NC(=O)[C@H](CCCCN)NC(=O)[C@H](CCCCN)NC(=O)[C@@H](N)CCCCN)CCSCC(=O)NCC[C@@H](C(=O)N[C@@H](C)C(=O)O)NC(=O)[C@H](CCCNC(=N)N)NC(=O)[C@@H]2CCCN2C(=O)[C@H]([C@@H](C)O)NC(=O)[C@H](CC(=O)O)NC(=O)CNC(=O)[C@H](CCCNC(=N)N)NC(=O)[C@@H]2CCCN2C1=O` [Cyclic peptide 80, KKKA-(Hcy)-IPRGDTPR(Dab(acetyl))A] (H-KKKA[hCys]IPRGDTPR[Dab]A-OH; linker 5-14 via X2), the Kd at human integrin αvβ5 (setting [3]) fell in the range of 50 to 100 nM. In series [1], the “Performance evaluation: Stability (residual rate of cyclic peptide after alkali treatment)” value is “A (The residual rate of the cyclic peptide is 70% or more.)”.
As for `CC(C)[C@@H]1NC(=O)[C@@H](NC(=O)[C@H](C)NC(=O)[C@H](CCCCN)NC(=O)[C@H](CCCCN)NC(=O)[C@@H](N)CCCCN)CCNC(=O)CSC[C@@H](C(=O)N[C@@H](C)C(=O)O)NC(=O)[C@H](C)NC(=O)[C@H](Cc2ccccc2)NC(=O)[C@H]([C@@H](C)O)NC(=O)[C@H](CC(=O)O)NC(=O)CNC(=O)[C@H](CCCNC(=N)N)NC(=O)[C@@H]2CCCN2C1=O` [Cyclic peptide 142, KKKA(Dab(acetyl))VPRGDTFA(C)A] (H-KKKA[Dab]VPRGDTFACA-OH; linker 5-14 via X1), the Kd on human integrin αvβ5 (setting [2]) was less than 50 nM. Moreover, the “Stability (molecule stability, residual rate of the cyclic peptide rank)” value in series [1] is “C (The residual rate of the cyclic peptide is 30% or more and less than 50%.)”.
In the case of `CC[C@H](C)[C@@H]1NC(=O)[C@@H](NC(=O)CNC(=O)[C@H](CCCCN)NC(=O)[C@H](CCCCN)NC(=O)[C@@H](N)CCCCN)CCSCC(=O)NCC[C@@H](C(=O)N[C@@H](C)C(=O)O)NC(=O)[C@H](CCCNC(=N)N)NC(=O)[C@H](Cc2ccccc2)NC(=O)[C@H](CO)NC(=O)[C@H](CC(=O)O)NC(=O)CNC(=O)[C@H](CCCNC(=N)N)NC(=O)[C@@H]2CCCN2C1=O` [Cyclic peptide 72, KKKG-(Hcy)-IPRGDSFR(Dab(acetyl))A] (H-KKKG[hCys]IPRGDSFR[Dab]A-OH; linker 5-14 via X2), on human integrin αvβ5 (setting [3]), the Kd was 50 to 100 nM. Also, the “Performance evaluation: Stability (residual rate of cyclic peptide after alkali treatment)” value in series [1] is recorded as “A (The residual rate of the cyclic peptide is 70% or more.)”.
